Reference: ChEMBL document CHEMBL3045098, “Petra, Osiris and Molinspiration (POM) together as a successful support in drug design: antibacterial activity and biopharmaceutical characterization of some azo Schiff bases” (2012)
The source made the active and inactive calls. The calls are words filed in the database; no cut-off is given here.

Key:
Type in all cases: functional
Pseudomonas aeruginosa [1] = assay: Antimicrobial activity against Pseudomonas aeruginosa at 2000 ug after 24 hr by disk diffusion method relative to control
Escherichia coli [2] = assay: Antimicrobial activity against Escherichia coli at 2000 ug after 24 hr by disk diffusion method relative to control
Klebsiella pneumoniae [3] = assay: Antimicrobial activity against Klebsiella pneumoniae at 2000 ug after 24 hr by disk diffusion method relative to control
Escherichia coli [4] = assay: Antimicrobial activity against Escherichia coli at 2000 ug after 24 hr by disk diffusion method; settings: read-out: IZ
Pseudomonas aeruginosa [5] = assay: Antimicrobial activity against Pseudomonas aeruginosa at 2000 ug after 24 hr by disk diffusion method; settings: read-out: IZ
Klebsiella pneumoniae [6] = assay: Antimicrobial activity against Klebsiella pneumoniae at 2000 ug after 24 hr by disk diffusion method; settings: read-out: IZ
Bacillus subtilis [7] = assay: Antimicrobial activity against Bacillus subtilis at 2000 ug after 24 hr by disk diffusion method; settings: read-out: IZ
Staphylococcus aureus [8] = assay: Antimicrobial activity against Staphylococcus aureus at 2000 ug after 24 hr by disk diffusion method relative to control
Bacillus subtilis [9] = assay: Antimicrobial activity against Bacillus subtilis at 2000 ug after 24 hr by disk diffusion method relative to control
Staphylococcus aureus [10] = assay: Antimicrobial activity against Staphylococcus aureus at 2000 ug after 24 hr by disk diffusion method; settings: read-out: IZ

Compound | inhibition (Pseudomonas aeruginosa [1]) | inhibition (Escherichia coli [2]) | inhibition (Klebsiella pneumoniae [3]) | zone of inhibition at 2000 µg/disc (Escherichia coli [4]) | zone of inhibition at 2000 µg/disc (Pseudomonas aeruginosa [5]) | inhibition (INH) (Pseudomonas aeruginosa [1]) | zone of inhibition at 2000 µg/disc (Klebsiella pneumoniae [6]) | zone of inhibition at 2000 µg/disc (Bacillus subtilis [7]) | inhibition (INH) (Escherichia coli [2]) | inhibition (INH) (Klebsiella pneumoniae [3]) | inhibition (INH) (Staphylococcus aureus [8]) | inhibition (INH) (Bacillus subtilis [9]) | zone of inhibition at 2000 µg/disc (Staphylococcus aureus [10])
COc1ccc(/N=N/c2cc(/C=N/Cc3ccccc3)c(O)c(OC)c2)cc1 | inactive | inactive | inactive | – | – | – | – | – | – | – | – | – | –
CN[C@@H]1[C@H](O[C@H]2[C@H](O[C@H]3[C@H](O)[C@@H](O)[C@H](N=C(N)N)[C@@H](O)[C@@H]3N=C(N)N)O[C@@H](C)[C@]2(O)C=O)O[C@@H](CO)[C@H](O)[C@H]1O [STREPTOMYCIN] | – | – | – | 14 mm | 14 mm | 64% | 14 mm | 14 mm | 64% | 64% | 45% | 64% | 10 mm
COc1ccc(/N=C/c2cc(/N=N/c3ccc(OC)cc3)cc(OC)c2O)cc1 | inactive | inactive | inactive | – | – | – | – | – | – | – | – | – | –
COc1ccc(/N=N/c2cc(/C=N/c3ccc(Oc4cccc(/N=C/c5cc(/N=N/c6ccc(OC)cc6)cc(OC)c5O)c4)cc3)c(O)c(OC)c2)cc1 | inactive | inactive | inactive | – | – | – | – | – | – | – | – | – | –
COc1ccc(/N=N/c2cc(/C=N/c3ccccc3)c(O)c(OC)c2)cc1 | inactive | inactive | inactive | – | – | – | – | 10 mm | – | – | 45% | 45% | 10 mm
COc1ccc(/N=N/c2cc(C=O)c(O)c(OC)c2)cc1 | inactive | inactive | inactive | – | – | – | – | 10 mm | – | – | 45% | 45% | 10 mm
COc1ccc(/N=N/c2cc(/C=N/c3cccc(OC)c3)c(O)c(OC)c2)cc1 | inactive | inactive | inactive | – | – | – | – | 10 mm | – | – | 45% | 45% | 10 mm
COc1ccc(/N=N/c2cc(/C=N/c3cccc(C)c3)c(O)c(OC)c2)cc1 | inactive | inactive | inactive | – | – | – | – | 10 mm | – | – | 45% | 45% | 10 mm
COc1ccc(/N=N/c2cc(/C=N/c3cccc(O)c3)c(O)c(OC)c2)cc1 | inactive | inactive | inactive | – | – | – | – | 10 mm | – | – | 45% | 45% | 10 mm
COc1ccc(/N=N/c2cc(/C=N/c3ccc(S(=O)(=O)c4cccc(/N=C/c5cc(/N=N/c6ccc(OC)cc6)cc(OC)c5O)c4)cc3)c(O)c(OC)c2)cc1 | inactive | inactive | inactive | – | – | – | – | 14 mm | – | – | 45% | 64% | 10 mm
COc1ccc(/N=N/c2cc(/C=N/c3ccccc3C)c(O)c(OC)c2)cc1 | inactive | inactive | inactive | – | – | – | – | – | – | – | – | – | –
CC1(C)S[C@@H]2[C@H](NC(=O)[C@H](N)c3ccccc3)C(=O)N2[C@H]1C(=O)O | inactive | inactive | inactive | – | – | – | – | – | – | – | – | – | –
COc1ccc(/N=N/c2cc(/C=N/c3ccccc3OC)c(O)c(OC)c2)cc1 | inactive | inactive | inactive | – | – | – | – | – | – | – | – | – | –
